pEC50: −log10 of the molar value.
Columns and labels:
DP = molecular target: T1, DP (Homo sapiens, UniProt Q13258); assay: DP activity study; format: cell-based
T1 sequence (Q13258 1-359): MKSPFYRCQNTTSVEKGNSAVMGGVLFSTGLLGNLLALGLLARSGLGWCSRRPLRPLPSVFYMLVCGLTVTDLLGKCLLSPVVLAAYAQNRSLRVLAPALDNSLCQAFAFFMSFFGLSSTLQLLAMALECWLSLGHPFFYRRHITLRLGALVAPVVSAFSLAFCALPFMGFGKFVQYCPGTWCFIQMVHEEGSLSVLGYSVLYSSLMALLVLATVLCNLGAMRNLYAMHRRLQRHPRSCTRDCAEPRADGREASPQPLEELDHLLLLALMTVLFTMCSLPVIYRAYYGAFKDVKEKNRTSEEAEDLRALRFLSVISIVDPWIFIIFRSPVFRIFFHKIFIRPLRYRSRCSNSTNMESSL
Procedure: (§1) Data from running binding and activity studies on the compounds of the invention were carried out as described in U.S. Pat. No. 7,427,685, the contents of which are incorporated herein by reference.

EP4 [1] = molecular target: T2, EP4 (Homo sapiens, UniProt P35408); assay: EP4 Ca2+ signal activity study; format: cell-based
T2 sequence (P35408 whole entry): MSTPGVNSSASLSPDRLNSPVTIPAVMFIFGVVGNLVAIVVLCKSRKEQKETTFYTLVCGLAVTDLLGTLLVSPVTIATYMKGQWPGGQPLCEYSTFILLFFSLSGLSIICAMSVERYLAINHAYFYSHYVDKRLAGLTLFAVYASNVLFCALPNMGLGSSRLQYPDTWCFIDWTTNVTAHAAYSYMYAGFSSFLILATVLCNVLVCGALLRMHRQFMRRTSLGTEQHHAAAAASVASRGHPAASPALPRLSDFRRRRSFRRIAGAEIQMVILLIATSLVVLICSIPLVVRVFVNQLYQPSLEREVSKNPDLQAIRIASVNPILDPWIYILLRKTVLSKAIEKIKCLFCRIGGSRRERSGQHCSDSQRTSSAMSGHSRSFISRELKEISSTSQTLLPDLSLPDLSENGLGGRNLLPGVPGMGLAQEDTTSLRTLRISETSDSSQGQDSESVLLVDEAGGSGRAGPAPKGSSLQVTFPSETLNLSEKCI
Procedure: as §1

EP2 [2] = molecular target: T3, EP2 (Homo sapiens, UniProt P43116); assay: EP2 binding study
T3 sequence (P43116 whole entry): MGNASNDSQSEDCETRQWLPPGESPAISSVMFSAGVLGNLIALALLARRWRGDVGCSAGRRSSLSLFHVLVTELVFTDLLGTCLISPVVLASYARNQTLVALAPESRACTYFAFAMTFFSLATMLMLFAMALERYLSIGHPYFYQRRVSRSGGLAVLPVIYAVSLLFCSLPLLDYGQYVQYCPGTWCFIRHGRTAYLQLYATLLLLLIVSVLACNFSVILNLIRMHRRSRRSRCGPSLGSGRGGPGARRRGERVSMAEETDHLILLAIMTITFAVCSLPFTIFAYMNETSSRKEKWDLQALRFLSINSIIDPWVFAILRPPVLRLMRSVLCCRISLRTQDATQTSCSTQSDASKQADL
Procedure: as §1

EP4 [3] = molecular target: T2, EP4; assay: EP4 binding study
Procedure: as §1

EP2 [4] = molecular target: T3, EP2; assay: EP2 cAMP activity study; format: cell-based
Procedure: as §1

EP3 = molecular target: T4, EP3 (Homo sapiens, UniProt P43115); assay: EP3 activity study; format: cell-based
T4 sequence (P43115 1-390): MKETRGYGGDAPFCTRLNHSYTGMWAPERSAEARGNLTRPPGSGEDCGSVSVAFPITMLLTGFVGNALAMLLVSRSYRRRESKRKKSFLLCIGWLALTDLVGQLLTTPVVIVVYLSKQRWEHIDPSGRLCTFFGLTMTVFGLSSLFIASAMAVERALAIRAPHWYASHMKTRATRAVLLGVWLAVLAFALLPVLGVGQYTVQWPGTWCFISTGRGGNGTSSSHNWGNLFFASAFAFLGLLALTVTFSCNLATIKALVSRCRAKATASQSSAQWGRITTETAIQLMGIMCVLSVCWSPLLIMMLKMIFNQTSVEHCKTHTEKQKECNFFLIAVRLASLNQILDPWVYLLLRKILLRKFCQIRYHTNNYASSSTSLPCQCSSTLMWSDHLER
Procedure: as §1

EP1 = molecular target: T5, EP1 (Homo sapiens, UniProt P34995); assay: EP1 activity study; format: cell-based
T5 sequence (P34995 1-402): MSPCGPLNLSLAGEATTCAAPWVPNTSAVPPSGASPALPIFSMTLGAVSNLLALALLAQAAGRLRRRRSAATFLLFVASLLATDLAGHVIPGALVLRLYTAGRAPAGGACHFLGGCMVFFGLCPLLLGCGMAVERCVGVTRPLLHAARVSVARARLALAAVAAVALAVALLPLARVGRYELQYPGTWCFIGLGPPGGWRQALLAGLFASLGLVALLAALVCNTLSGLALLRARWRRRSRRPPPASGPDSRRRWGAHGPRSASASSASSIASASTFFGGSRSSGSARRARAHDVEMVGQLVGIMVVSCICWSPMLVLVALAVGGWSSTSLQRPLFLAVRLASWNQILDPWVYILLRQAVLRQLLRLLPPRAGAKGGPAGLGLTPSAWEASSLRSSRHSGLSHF
Procedure: as §1

TP = molecular target: T6, TP (Homo sapiens, UniProt P21731); assay: TP activity study; format: cell-based
T6 sequence (P21731 1-343): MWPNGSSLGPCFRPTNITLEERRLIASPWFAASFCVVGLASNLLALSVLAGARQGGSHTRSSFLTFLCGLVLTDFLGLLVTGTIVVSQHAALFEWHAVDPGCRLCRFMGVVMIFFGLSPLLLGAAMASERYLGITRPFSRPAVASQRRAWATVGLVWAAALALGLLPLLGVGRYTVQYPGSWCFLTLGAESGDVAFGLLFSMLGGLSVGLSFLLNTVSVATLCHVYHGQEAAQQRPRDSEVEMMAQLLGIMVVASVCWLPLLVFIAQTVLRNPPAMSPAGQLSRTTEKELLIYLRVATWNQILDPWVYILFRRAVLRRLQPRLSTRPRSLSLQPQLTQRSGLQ
Procedure: as §1

EP2 [5] = molecular target: T3, EP2; assay: EP2 Ca2+ signal activity study; format: cell-based
Procedure: as §1

Compound `C[C@@H](O)CCC[C@H](O)/C=C/[C@@H]1[C@@H](CCCc2ccc(C(=O)O)s2)[C@H](Cl)C[C@H]1O` has a pEC50 (DP) of 5.17.
For `CCCC(O)CC(O)/C=C/[C@@H]1[C@@H](CCCc2ccc(C(=O)O)s2)[C@H](Cl)C[C@H]1O` (stereo partly shown), the pEC50 (EP4 [1]) was 7.64, the pEC50 (EP2 [2]) was 6.15 and the pEC50 (EP4 [3]) was 6.36. The pEC50 (EP2 [4]) was 8.52, the pEC50 (EP3) was 6.16 and the pEC50 (EP1) was 5.91. For the same compound, the pEC50 (DP) was 5.65, the pEC50 (TP) was 5.32 and the pEC50 (EP2 [5]) was 7.57.
`CCCCC(O)[C@H](O)/C=C/[C@@H]1[C@@H](CCCc2ccc(C(=O)O)s2)[C@H](Cl)C[C@H]1O` (stereo partly shown) gave a pEC50 (EP4 [1]) of 7.35, a pEC50 (EP2 [2]) of 6.83 and a pEC50 (EP4 [3]) of 6.31. It also gave a pEC50 (EP2 [4]) of 8.64, a pEC50 (DP) of 6.05 and a pEC50 (EP2 [5]) of 8.05.
`O=C(O)c1ccc(CCC[C@@H]2[C@@H](/C=C/[C@@H](O)CCCCCO)[C@H](O)C[C@H]2Cl)s1` showed a pEC50 (EP4 [1]) of 7.17, a pEC50 (EP2 [2]) of 6.83 and a pEC50 (EP4 [3]) of 5.95. The pEC50 (EP2 [4]) was 9.40, the pEC50 (EP3) was 6.89 and the pEC50 (EP1) was 7.00. The pEC50 (DP) was 5.47, the pEC50 (TP) was 5.12 and the pEC50 (EP2 [5]) was 8.40.
With `C[C@@H](O)CCCC[C@H](O)/C=C/[C@@H]1[C@@H](CCCc2ccc(C(=O)O)s2)[C@H](Cl)C[C@H]1O` [5-(3-((1R,2R,3R,5R)-5-Chloro-2-((3S 8R,E)-3,8-dihydroxynon-1-en-1-yl)-3-hydroxycyclopentyl)propyl)thiophene-2-carboxylic acid] the pEC50 (EP4 [1]) was 6.34, the pEC50 (EP2 [2]) was 6.44 and the pEC50 (EP4 [3]) was < 5.00. For the same compound, the pEC50 (EP2 [4]) was 8.85, the pEC50 (EP3) was 6.65 and the pEC50 (EP1) was 6.68. It also gave a pEC50 (DP) of 5.34 and a pEC50 (EP2 [5]) of 7.54.
In the case of `C[C@@H](O)CCCC[C@@H](O)/C=C/[C@@H]1[C@@H](CCCc2ccc(C(=O)O)s2)[C@H](Cl)C[C@H]1O` [5-(3-((1R,2R,3R,5R)-5-chloro-2-((3R,8R,E)-3,8-dihydroxynon-1-en-1-yl)-3-hydroxycyclopentyl)propyl)thiophene-2-carboxylic acid], the pEC50 (EP4 [1]) was < 5.00, the pEC50 (EP2 [2]) was 6.44 and the pEC50 (EP4 [3]) was 5.47. The pEC50 (EP2 [4]) was 7.85, the pEC50 (EP3) was 5.15 and the pEC50 (EP1) was 5.37. The pEC50 (EP2 [5]) was 6.48.

Source: patent US9315486B2, “Therapeutic cyclopentanols, compositions thereof, and methods for use thereof” (Allergan, Inc., priority 2013, dated 2016)
